These results are taken from patent US20160145247A1, “Aminomethyl-Biaryl Derivatives Complement Factor D inhibitors and uses thereof” (NOVARTIS AG, priority 2013, published 2016).

pIC50: −log10 of the molar value.

T1 sequence (P00746 26-253): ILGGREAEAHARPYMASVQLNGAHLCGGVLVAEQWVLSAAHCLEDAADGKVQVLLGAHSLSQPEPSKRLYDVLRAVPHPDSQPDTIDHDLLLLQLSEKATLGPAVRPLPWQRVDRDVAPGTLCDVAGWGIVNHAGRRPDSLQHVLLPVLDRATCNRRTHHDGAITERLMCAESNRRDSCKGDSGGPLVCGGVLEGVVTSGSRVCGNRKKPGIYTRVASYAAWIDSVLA

This experiment addresses T1, factor D (Homo sapiens, UniProt P00746).
T1 construct: made in house; host or cells: E. coli
As to the kind of experiment: factor D inhibition assay of Biological Example 2. In kind it is biochemical.
Broadly, the pIC50 is the IC50 on a negative log10 scale, so that one unit is a factor of ten. With `CCOC[C@@H](N)c1cccc(-c2cccc(COc3ccccc3CC(=O)O)c2)c1` [Example 173, (S)-2-(2-((3′-(1-Amino-2-ethoxyethyl)-[1,1′-biphenyl]-3-yl)methoxy)phenyl)acetic acid], the pIC50 was 6.83.
The value for `CCOc1cc(COc2ccccc2CC(=O)O)cc(-c2cccc([C@@H](C)N)c2F)c1` [Example 256-B, (R)-2-(2-((3′-(1-Aminoethyl)-5-ethoxy-2′-fluoro-[1,1′-biphenyl]-3-yl)methoxy)phenyl)acetic acid] was 8.52; that for `N[C@H](CO)c1cccc(-c2cc(C(=O)Nc3ccccc3CC(=O)O)cc(-c3cccc([C@H](N)CO)c3)c2)c1` [Example 82-B, 2-(2-(3,3″-bis((S)-1-amino-2-hydroxyethyl)-[1,1′:3′,1″-terphenyl]-5′-ylcarboxamido)phenyl)acetic acid] was 7.72; that for `C[C@@H](N)c1cccc(-c2cc(COc3ccccc3CC(=O)O)cc(CN3CCCC3)c2)c1F` [Example 216-AJ] was 6.34.
The same measure for `C[C@@H](N)c1cccc(-c2cc(NCC3CC3)cc(N(C)Cc3ccccc3CC(=O)O)c2)c1F` [Example 216-AA]: 7.49; for `CCC[C@@H](N)c1cc(-c2cccc(COc3ccccc3CC(=O)O)c2)ccn1` [Example 196-B]: 6.69.
The same measure for `C[C@@H](N)c1cccc(-c2cc(COc3ccccc3CC(=O)O)cc(COC3CCOc4ccc(Cl)cc43)c2)c1` (some centres unmarked) [Example 120-T]: 8.10.
Regarding `NCc1cccc(-c2cccc(COc3cc(C4CC4)ccc3CC(=O)O)c2)c1` [Example 294-A], the pIC50 was 8.05.
`CC(=O)N(C)c1cc(COc2ccccc2CC(=O)O)cc(-c2cccc([C@@H](C)N)c2F)c1` [Example 229, (R)-2-(2-((3′-(1-aminoethyl)-2′-fluoro-5-(N-methylacetamido)-[1,1′-biphenyl]-3-yl)methoxy)phenyl)acetic acid] showed a pIC50 of 6.97.
The value for `C[C@H](N)c1cccc(-c2cc(COc3ccccc3CC(=O)O)cc(OCc3ccccn3)c2)c1F` [Example 214-M] was 7.70; that for `C[C@@H](N)c1cccc(-c2cc(COc3ccccc3CC(=O)O)cc(C3CCCCC3)c2)c1F` [Example 243-D, (R)-2-(2-((3′-(1-aminoethyl)-5-cyclohexyl-2′-fluoro-[1,1′-biphenyl]-3-yl)methoxy)phenyl)acetic acid] was 7.89; that for `Cc1cc(COc2ccccc2CC(=O)O)cc(-c2cccc([C@H](N)CO)c2)c1` [Example 112-B, (S)-2-(2-((3′-(1-Amino-2-hydroxyethyl)-5-methyl-[1,1′-biphenyl]-3-yl)methoxy)phenyl)acetic acid] was 8.15.
The value for `C[C@@H](N)c1cccc(-c2cc(NCC3CC3)c3c(c2)C(Oc2ccccc2CC(=O)O)CCO3)c1F` (some centres unmarked) [Example 216-X] was 7.85; that for `NCc1cccc(-c2cc(NCC(F)(F)F)cc(C(=O)Nc3ccccc3CC(=O)O)n2)c1` [Example 54, 2-(2-(6-(3-(Aminomethyl)phenyl)-4-((2,2,2-trifluoroethyl)amino)picolinamido)phenyl)acetic acid] was 8.52; that for `CCNc1cc(COc2ccccc2CC(=O)O)cc(-c2cccc([C@H](N)CO)c2)c1` [Example 129, (S)-2-(2-((3′-(1-Amino-2-hydroxyethyl)-5-(ethylamino)-[1,1′-biphenyl]-3-yl)methoxy)phenyl)acetic acid] was 8.05.
The same measure for `NCc1cccc(-c2cc(COc3ccccc3CC(=O)O)cc(-c3ccn[nH]3)c2)c1` [Example 209-B]: 8.40.
Take `NCc1cc(F)cc(-c2nc(C(=O)Nc3ccccc3CC(=O)O)c(N3CCOCC3)s2)c1` [Example 32, 2-(2-(2-(3-(aminomethyl)-5-fluorophenyl)-5-morpholinothiazole-4-carboxamido)phenyl)acetic acid]: the negative logarithm of the IC50 (pIC50) is 7.31.
Compound `NCc1cc(F)cc(-c2cc(C(=O)Nc3ccccc3CC(=O)O)cc(N3CCOCC3)c2)c1` [Example 77-B, 2-(2-(3′-(Aminomethyl)-5′-fluoro-5-morpholino-[1,1′-biphenyl]-3-ylcarboxamido)phenyl)acetic acid] had a pIC50 of 7.26.
The value for `NCc1ccc(F)c(-c2ccnc(COc3ccccc3CC(=O)O)c2)c1` [Example 176, 2-(2-((4-(5-(Aminomethyl)-2-fluorophenyl)pyridin-2-yl)methoxy)phenyl)acetic acid] was 5.24.
The value for `C[C@H](N)c1cccc(-c2cc(COc3ccccc3CC(=O)O)cc(OCCF)c2)c1F` [Example 214-O] was 7.15; that for `C[C@@H](N)c1cccc(-c2cc(COc3ccccc3CC(=O)O)cc(OCc3ncn(C)n3)c2)c1F` [Example 214-K] was 7.82.
The same measure for `NCc1cc(-c2cccc(COc3ccccc3CC(=O)O)c2)ccn1` [Example 138-G]: 7.92; for `NCc1cccc(-c2cc(N3CCOCC3)cc(C(=O)Nc3ccccc3CC(=O)O)n2)c1` [Example 44, 2-(2-(6-(3-(Aminomethyl)phenyl)-4-morpholinopicolinamido)phenyl)acetic acid]: 8.05.
Regarding `CCOCc1cc(COc2ccccc2CC(=O)O)cc(-c2cccc([C@@H](C)N)c2F)c1` [Example 120-Q], the negative logarithm of the IC50 (pIC50) is 7.77.
The same measure for `CCC[C@@H](N)c1cccc(-c2cc(COc3ccccc3CC(=O)O)cc(NC[C@@H]3CCCO3)c2)c1F` [Example 199-C]: 7.19.
The same measure for `N[C@@H](CF)c1cccc(-c2cc(COc3ccccc3CC(=O)O)cc(NCC3CC3)c2)c1F` [Example 216-B]: 7.25.
In turn, `C[C@@H](N)c1cccc(-c2cc(COc3ccccc3CC(=O)O)cc(OCC(F)(F)F)c2)c1F` [Example 231-B, (R)-2-(2-((3′-(1-aminoethyl)-2′-fluoro-5-(2,2,2-trifluoroethoxy)-[1,1′-biphenyl]-3-yl)methoxy)phenyl)acetic acid] showed a negative-log IC50 (pIC50) of 7.96.
`C[C@@H](N)c1cccc(-c2cc(COc3ccccc3CC(=O)O)cc(N(C)CCF)c2)c1F` [Example 216-L] showed a pIC50 of 7.62.
`NCc1cccc(-c2cccc(C(=O)Nc3ccccc3CC(N)=O)c2)c1` [Example 3-B, N-(2-(2-Amino-2-oxoethyl)phenyl)-3′-(aminomethyl)-[1,1′-biphenyl]-3-carboxamide] gave a pIC50 of 4.10.
The same measure for `COCc1cc(COc2ccccc2CC(=O)O)cc(-c2cccc(C(N)CF)c2F)c1` (racemic) [Example 205-B, (±)-2-(2-((3′-(1-Amino-2-fluoroethyl)-2′-fluoro-5-(methoxymethyl)-[1,1′-biphenyl]-3-yl)methoxy)phenyl)acetic acid]: 8.00; for `CC(=O)NC(C(=O)O)c1ccccc1OCc1cccc(-c2cccc(CN)c2)c1` (centres unmarked) [Example 296, 2-acetamido-2-(2-((3′-(aminomethyl)-[1,1′-biphenyl]-3-yl)methoxy)phenyl)acetic acid]: 5.62; for `C[C@@H](N)c1cccc(-c2cc(COCC(F)(F)F)cc(COc3ccccc3CC(=O)O)c2)c1` [Example 120-N]: 7.82.
The value for `C[C@@H](N)c1cccc(-c2cc(CCC3CCCO3)cc(COc3ccccc3CC(=O)O)c2)c1F` (stereo partly drawn) [Example 236-C, 2-(2-((3′-((R)-1-aminoethyl)-2′-fluoro-5-(2-(tetrahydrofuran-2-yl)ethyl)-[1,1′-biphenyl]-3-yl)methoxy)phenyl)acetic acid] was 8.05.
The same measure for `C[C@@H](N)c1cccc(-c2cc(CCC3CNCCO3)cc(COc3ccccc3CC(=O)O)c2)c1F` (stereo partly drawn) [Example 239-C, 2-(2-((3′-((R)-1-aminoethyl)-2′-fluoro-5-(2-(morpholin-2-yl)ethyl)-[1,1′-biphenyl]-3-yl)methoxy)phenyl)acetic acid]: 7.89; for `C[C@@H](N)c1cccc(-c2cc(NC[C@H]3CCCO3)c3c(c2)C(Oc2ccccc2CC(=O)O)CCO3)c1F` (some centres unmarked) [Example 216-W]: 7.77; for `C[C@@H](N)c1cccc(-c2cc(COc3ccccc3CC(=O)O)cc(C(O)C(F)(F)F)c2)c1` (single isomer, unassigned) [116-H b) (tr = 4.6 min)]: 7.82.
In turn, `C[C@@H](N)c1cccc(-c2ccc(C3CC3)c(COc3ccccc3CC(=O)O)c2)c1F` [Example 280, (R)-2-(2-((3′-(1-aminoethyl)-4-cyclopropyl-2′-fluoro-[1,1′-biphenyl]-3-yl)methoxy)phenyl)acetic acid] gave a pIC50 of 8.22.
The value for `NC(CF)c1cccc(-c2cccc(COc3ccccc3CC(=O)O)c2)c1F` (centres unmarked) [Example 196-F] was 8.22; that for `C[C@@H](N)c1cccc(-c2cc(COc3ccccc3CC(=O)O)cc(OC[C@H]3CCCO3)c2)c1F` [Example 232, 2-(2-((3′-((R)-1-aminoethyl)-2′-fluoro-5-(((R)-tetrahydrofuran-2-yl)methoxy)-[1,1′-biphenyl]-3-yl)methoxy)phenyl)acetic acid] was 8.70.
The value for `NCc1cccc(-c2cc(COc3ccccc3CC(=O)O)ccc2F)c1F` [Example 137, 2-(2-((3′-(Aminomethyl)-2′,6-difluoro-[1,1′-biphenyl]-3-yl)methoxy)phenyl)acetic acid] was 7.68; that for `C[C@@H](N)c1cccc(-c2ccc3c(c2)N(Cc2ccccc2CC(=O)O)CCC3)c1F` [Example 219-D, (R)-2-(2-((7-(3-(1-Aminoethyl)-2-fluorophenyl)-3,4-dihydroquinolin-1(2H)-yl)methyl)phenyl)acetic acid] was 7.21.
The same measure for `Cc1ccc(COc2ccccc2CC(=O)O)cc1-c1cccc(CN)c1F` [Example 149, 2-(2-((3′-(Aminomethyl)-2′-fluoro-6-methyl-[1,1′-biphenyl]-3-yl)methoxy)phenyl)acetic acid]: 7.36; for `C[C@@H](N)c1cccc(-c2cc(COc3ccccc3CC(=O)O)cc(C(C)(C)O)c2)c1` [Example 120-H]: 8.00.
In the case of `Cc1ccc(-c2cccc([C@@H](C)N)c2F)cc1COc1ccccc1CC(=O)O` [Example 273-B, (R)-2-(2-((3′-(1-aminoethyl)-2′-fluoro-4-methyl-[1,1′-biphenyl]-3-yl)methoxy)phenyl)acetic acid], the negative-log IC50 (pIC50) was 7.85.
